According to PMC9603588, “Structural Basis of Peptide-Based Antimicrobial Inhibition of a Resistance-Nodulation-Cell Division Multidrug Efflux Pump” (Microbiology Spectrum, 2022):
Converted amounts (≈) assume the structure as drawn. Where two headings read alike, the source gives them in different places.

Key:
[1] = molecular target: MtrD_(CR103) multidrug efflux pump (MtrD from N. gonorrhoeae strain CR.103) (Neisseria gonorrhoeae strain CR.103) (UniProt Q51073); experiment: cryo-EM structure; 2 μM MtrD_(CR103)-nanodisc sample incubated with 100 μM CASP, 20 μM Col or 50 μM LL for 2 h; single-particle cryo-EM
N. gonorrhoeae WHO X = experiment: Nov MIC against gonococci by agar dilution, WHO X; format: cell-based; conditions: Neisseria gonorrhoeae, strain WHO X
Method: (§1) The MICs for Nov were determined by agar dilution as described previously ([53]). The construction of the mtrD::kan transformants was described previously ([3], [61]); note that WHO X was originally termed H041.

E. coli K-12 = experiment: MIC of Nov for E. coli K-12; format: cell-based; conditions: Escherichia coli, K12
E. coli K-12 ΔtolC::kan = experiment: MIC of Nov for E. coli K-12 ΔtolC::kan; format: cell-based; conditions: Escherichia coli, read-out: MIC of Nov
[2] = tested on: S. enterica subsp. enterica; experiment: MIC of Nov for S. enterica subsp. enterica; format: cell-based; conditions: Salmonella enterica
[3] = tested on: N. gonorrhoeae FA19 mtrD::kan; experiment: Nov MIC against gonococci by agar dilution, FA19 mtrD::kan; format: cell-based; conditions: Neisseria gonorrhoeae
Method: as §1

P. aeruginosa = experiment: MIC of Nov for P. aeruginosa; format: cell-based; conditions: Pseudomonas aeruginosa
N. gonorrhoeae FA19 = experiment: Nov MIC against gonococci by agar dilution, FA19; format: cell-based; conditions: Neisseria gonorrhoeae, strain FA19
Method: as §1

[4] = tested on: N. gonorrhoeae WHO X mtrD::kan; experiment: Nov MIC against gonococci by agar dilution, WHO X mtrD::kan; format: cell-based; conditions: Neisseria gonorrhoeae
Method: as §1

N. subflava ATCC 49275 = experiment: MIC of Nov for N. subflava; format: cell-based; conditions: Neisseria subflava, ATCC49275
[5] = tested on: E. coli BL21(DE3) ΔacrB/pACYCΩmtrCDE; experiment: MIC of antibiotics for E. coli BL21(DE3) ΔacrB/pACYCΩmtrCDE; format: cell-based; conditions: Escherichia coli

Question: How did the stoichiometry N [1] turn out when “MtrD_(CR103) multidrug efflux pump (MtrD from N. gonorrhoeae strain CR.103) (from UniProt Q51073 1-1067) (natural protein)” was run?
Answer: 3

Question: With CO[C@@H]1[C@@H](OC(N)=O)[C@@H](O)[C@H](Oc2ccc3c(O)c(NC(=O)c4ccc(O)c(CC=C(C)C)c4)c(=O)oc3c2C)OC1(C)C [Nov, novobiocin] as the compound, how does the MIC (N. gonorrhoeae WHO X) read?
Answer: 1 µg/mL (≈ 1.63 µM)

Question: What about the MIC (E. coli K-12) of the same compound?
Answer: > 128 µg/mL

Question: What about the MIC (E. coli K-12 ΔtolC::kan) of the same compound?
Answer: 4 µg/mL

Question: What about the MIC [2] of the same compound?
Answer: 512 µg/mL

Question: And the MIC [3]?
Answer: 0.06 µg/mL (≈ 0.0979 µM)

Question: And the MIC (P. aeruginosa)?
Answer: > 1000 µg/mL

Question: And the MIC (N. gonorrhoeae FA19)?
Answer: 0.25 µg/mL (≈ 0.408 µM)

Question: What about the MIC [4] of the same compound?
Answer: 0.25 µg/mL (≈ 0.408 µM)

Question: And the MIC (N. subflava ATCC 49275)?
Answer: 1 µg/mL

Question: What about the MIC ([5]; read-out: MIC for Nov) of the same compound?
Answer: 125 µg/mL

Question: With [H]/N=C(/N)N[C@H]1[C@H](O)[C@@H](O)[C@H](O[C@@H]2O[C@@H](C)[C@](O)(C=O)[C@H]2O[C@@H]2O[C@@H](CO)[C@H](O)[C@@H](O)[C@@H]2NC)[C@@H](N/C(N)=N\[H])[C@@H]1O [streptomycin] as the compound, how does the MIC ([5]; read-out: MIC of streptomycin) read?
Answer: 8 µg/mL
